# Values quoted from earlier work in patent US6676956B1, “Oil-in-water emulsion for protecting human organs against peroxidation” (Fresenius Kabi Austria GmbH, priority 1998, dated 2004).
# Columns and labels:
# skeletal muscles = conditions: 500 mg given directly before reperfusion
# [1] = per 1 g of the form
compound,measurement,setting,value
CC(=O)Oc1c(C)c(C)c2c(c1C)CCC(C)(CCCC(C)CCCC(C)CCCC(C)C)O2 (racemic) [all-rac-tocopherolacetate],increase in lipid peroxides in the serum (TBARS),skeletal muscles,prevented
same,increase in serum creatine-phosphokinase during the reperfusion phase,skeletal muscles,suppressed
same,ischaemia-reperfusion damage,skeletal muscles,reduced
"Cc1c(C)c2c(c(C)c1O)CCC(C)(CCCC(C)CCCC(C)CCCC(C)C)O2 (racemic) [all-rac-α-tocopherol, 2,5,7, 8 tetramethyl-2-(4′,8′,12′-trimethyltridecyl)chroman-6-ol]",effectiveness of 1 g corresponds to that of RRR-α-tocopherol,[1],0.74 g
same,α-tocopherol level in the cell-associated aortic endothelium,lipidperoxidation; 0.5 mg/day via central vein catheter for 3 days,significant increase
"Cc1c(C)c2c(c(C)c1O)CCC(C)(CCCC(C)CCCC(C)CCCC(C)C)O2 (single isomer, unassigned) [SRR-stereoisomer, 2,5,7, 8 tetramethyl-2-(4′,8′,12′-trimethyltridecyl)chroman-6-ol]",effectiveness of 1 g corresponds to that of RRR-α-tocopherol,[1],0.31 g
vitamin E,vitamin E concentration in the plasma,lipidperoxidation; 0.5 mg/day intravenously for 3 days vs 1.0 mg/day orally,significantly higher
same,concentration of TBARS in the plasma,lipidperoxidation; 0.5 mg/day intravenously for 3 days vs control animals,significantly lower
